This note sets out measurements from patent US20260216109A1, “TREATMENT OF SKIN DISORDERS WITH SHORT CHAIN FATTY ACIDS” (Temple University-Of The Commonwealth System of Higher …, priority 2023, published 2026).

The structures appear in SMILES notation.

For assay [1], the system named is imiquimod (IMQ)-induced psoriasis model mice. The assay is described as follows: Disease severity score, imiquimod (IMQ)-induced psoriasis model in mice. The format is in vivo, mouse. The following applies: for disease severity score (psoriasis severity score): Example 12. On the procedure:
(§1) Topical application of IMQ, a TLR7/8 ligand and potent immune activator induced and exacerbated psoriasis in mice. The mouse IMQ-induced psoriasis (IMQ Ps) model was initiated by a repeated topical application of Aldara© cream (containing 5% IMQ) over 6 consecutive days. Female Balb/c mice (9 weeks of age at reception, ordered with 20 g, Charles River, Sulzfeld, Germany; n=10 mice/group, exception healthy controls n=4) received daily a topical application of 62.5 mg of commercially available IMQ cream (5% Aldara©) on the beforehand (day −1) shaved (~2 cm×3 cm), depilated (Pilka© cream) back skin, and 7 mg on the outer right ear skin for 6 consecutive days, translating in a daily dose of approximately 3.5 mg IMQ. Healthy control mice were included in the study and were treated with vehicle cream (Vaseline; Bombastus-Werke AG) only instead of IMQ. Additionally, an IMQ disease control group was also included.
Before starting treatment on the day of disease induction (day 0), mice were randomized based on body weight to the respective group. To evaluate the anti-inflammatory efficacy of the two test compounds in mouse IMQ psoriasis, mice were treated twice daily ([…] in sterile water; m/m/v) or with fixed dose of SCFA (in ddH2O) starting on day 0.
(§2) Disease Severity Score was evaluated on a daily base starting with the induction of psoriasis by IMQ application (day 0) until the end (day 6) of the study. The psoriasis severity on the back skin of the mice was evaluated by using a modified scoring system developed by van der Fits et al., based on the clinical PASI (psoriasis area and severity index) and takes skin erythema, scaling and skin thickening into account. Scoring was performed by the same lab technician throughout the experiment. Each parameter was scored independently on a scale from 0 to 3.
The added-up score (erythema plus scaling plus thickening), named disease severity score (scale 0-9), served then as marker for the severity of back skin inflammation. In addition, ear thickness of the right ear was determined daily by using an automatized caliper (Bayer AG, Germany).
The statistical analysis of the data was conducted by using the GraphPad PRISM software. Here, a one-way analysis of variance (ANOVA) and a pair-wise comparison to the IMQ disease control group (using the Dunnett's test) as a multiple comparison procedure was performed. Statistical significance was delineated by p value (*, p<0.05; **, p<0.01; ***, p<0.005; **** p<0.001).

For assay [2] the test system is unchanged. Briefly: Back skin scaling, IMQ-induced psoriasis model in mice. The format is in vivo, mouse. The following applies: for skin scaling: Example 12. On the procedure:
as §1, §2
Before starting treatment on the day of disease induction (day 0), mice were randomized based on body weight to the respective group. To evaluate the anti-inflammatory efficacy of the two compounds in mouse IMQ psoriasis, mice were treated twice daily ([…] in sterile water; m/m/v) alone, with fixed dose of SCFA (in ddH2O) alone, […] dose of SCFA. Healthy and IMQ disease controls were orally treated in parallel with vehicle only. All treatments started with first application of IMQ on day 0.
Skin scaling, one of the disease severity score parameters, was evaluated in IMQ-treated mice (FIGS. 57-59).

`CCOc1cc([C@@H](CS(C)(=O)=O)N2C(=O)c3cccc(NC(C)=O)c3C2=O)ccc1OC` [Otezla, Apremilast]: in assay [1] (Example 4, oral gavage BID from day 0 to day 6, Apremilast 25 mg/kg BID (50 mg/kg/day), SCFA fixed dose (120 mg/kg/day Ca-propionate + 2,146 mg/kg/day Ca-/Mg-butyrate), vs IMQ control), the “disease severity score (psoriasis severity), back skin” value is recorded as “significantly inhibited the psoriasis severity in IMQ-treated mice throughout the duration of the experiment”. Moreover, in assay [1] (Example 5, Apremilast 10 mg/kg/day and 14 mg/kg/day (5 and 7 mg/kg BID), oral), the “disease severity score (psoriasis severity)” value is “inhibited the psoriasis severity in IMQ-treated mice within the first four days of the study, but anti-inflammatory effects were not maintained until the end of the study at day 6”. For the same molecule, the “disease severity score (psoriasis severity score)” value is “did not reach significance at day 4 and day 5” in assay [1] (Apremilast 12 mg/kg BID oral, monotherapy); “reduced the psoriasis severity score in IMQ-treated mice at day 4 of the study (p<0.05), and these effects were maintained at the end of the study at day 6” in assay [1] (Apremilast 25 mg/kg BID oral alone, or combined with fixed dose SCFA (60 mg/kg/day Ca-propionate + 1,100 mg/kg/day Ca-/Mg-butyrate)). For the same molecule, the “back skin scaling (desquamation) over time” value in assay [2] (Example 9, Apremilast 25 mg/kg BID, SCFA fixed dose (120 mg/kg/day Ca-propionate + 1,100 mg/kg/day Ca-/Mg-butyrate), alone or combined, oral) is on record as “able to inhibit the skin scaling from day 3 to day 5”. In addition, the “cumulative evaluation of skin scaling over the entire course of the study” value in assay [2] (Example 9, Apremilast 25 mg/kg BID, SCFA fixed dose (120 + 1,100 mg/kg/day), alone or combined, p<0.01) was “significant and similar beneficial effects”. Further, the skin scaling result in assay [2] (day 5 and day 6, Apremilast 25 mg/kg BID alone, or combined with fixed dose SCFA (60 + 1,100 mg/kg/day)) is “significantly inhibited skin scaling on day 5 (p<0.05) and day 6 (p<0.01)”; in assay [2] (day 6, fixed dose SCFA alone, Apremilast 12 mg/kg BID alone, or both combined) it was “did not reach significance at day 6”.
